TGI and GI50 data for 13 molecules are collected here from PubChem BioAssay (NCI).

Molecules are shown by their SMILES.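 Method: 48-hour compound exposure of cells in 96-well plates, five concentrations, linear interpolation of endpoints. GI50 = concentration required for 50% inhibition of growth. TGI denotes the concentration required for complete inhibition of growth.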

Common to all, as to experiment: inhibition of tumour cell growth, NCI panel, 48 h
The subject of assay [1] is A549 NSCLC.
Assay [2] relates to HCT-116 colon.
Assay [3] deals with MALME-3M melanoma.
The subject of assay [4] is NCI-H23 lung.
The test system of assay [5] is NCI-H522 lung.
Assay [6] concerns SK-MEL-28 melanoma.
Assay [7] has as its system SR leukemia.
The test system of assay [8] is UO-31 renal.
The subject of assay [9] is HL-60(TB) leukemia.
Assay [10] concerns NCI/ADR-RES ovarian.

As to `O=C1C=CC(=O)c2nc3c(cc21)CCC3`, the TGI was over 100 µM in assay [1]; 28.8 µM in assay [2]; 31.4 µM in assay [3]; 64.6 µM in assay [4]; 25.4 µM in [5]; 40.4 µM in assay [6]. Also, the TGI in [7] was 27 µM; in assay [8] it was over 100 µM.

For `CC(=O)CC(OC(C)=O)C1=CCC2C(CC1C)OC(=O)C2C` (centres undefined), the TGI in assay [1], in [2], in [9], in [3], in assay [4] and in [5] was over 100 µM in each case. The TGI in assay [10], in assay [6] and in [7] was over 100 µM throughout.

As for `O=S(=O)(N/N=C/c1cccc(/C=N/NS(=O)(=O)c2ccccc2)c1)c1ccccc1`, the TGI in assay [1], in assay [2], in assay [9], in [3], in assay [4] and in assay [6] was over 100 µM each time. The TGI in [7] and in [8] was over 100 µM each time.

As for `CCCCCC[C@@H]1CCC2C(CO)[C@@H](O)CC[C@@H]2C1` (some centres undefined), the TGI was 32.1 µM in [1]; 32.1 µM in assay [2]; 36.1 µM in assay [3]; 30.8 µM in [4]; 31.5 µM in assay [5]; 34.3 µM in [6]. Further, the TGI in assay [7] amounted to 53.6 µM; in assay [8], 38.7 µM.

As to `Cn1ccc2c3c(Oc4ccc(NC(N)=O)cc4)ccnc3ccc21`, the GI50 in assay [1], in [2], in assay [3], in assay [4], in [5] and in assay [10] was over 100 µM throughout. In addition, the GI50 in [6], in [7] and in [8] was over 100 µM in each case. The TGI in assay [1], in assay [2], in assay [3], in assay [4], in [5] and in assay [10] was over 100 µM in each case. Moreover, the TGI in [6], in [7] and in [8] was over 100 µM in each case.

For `O=C1CN(c2cccc(Cl)c2)C(=O)CN1CCN1CC(=O)N(c2cccc(Cl)c2)CC1=O`, the TGI in assay [1] was over 100 µM; in assay [2], over 100 µM; in assay [9], over 100 µM; in [3], over 100 µM; in assay [4], 71.1 µM; in assay [5], over 100 µM. The TGI in assay [6], in assay [7] and in assay [8] was over 100 µM each time.

Consider `O=S(=O)(c1ccccc1)N1CCN(S(=O)(=O)c2ccccc2)c2ccccc21`, for which the TGI in assay [1], in assay [2], in [3], in assay [4], in assay [5] and in assay [10] was over 100 µM in each case. Further, the TGI in assay [6], in assay [7] and in assay [8] was over 100 µM throughout.

For `CCCOc1cc2ccccc2cc1C(=O)Nc1nc(N)c2c(ccc3nccc32)[nH]1`, the GI50 in assay [1] is 0.0993 µM; in assay [2], 0.0461 µM; in [9], 0.0307 µM; in assay [3], 1.13 µM; in assay [4], 0.209 µM; in assay [5], 0.018 µM. The values for the GI50 in assay [10], in assay [6] and in assay [8] were 0.0962 µM, 1.01 µM and 0.703 µM, respectively. Further, the TGI in assay [1] was 1.86 µM; in assay [2], 1.22 µM; in assay [9], 0.229 µM; in assay [3], 2.62 µM; in [4], 2.04 µM; in assay [5], 0.0426 µM. Further, the TGI in assay [10] stood at 2.24 µM; in [6] it was 2.36 µM; in [8] it was 2.4 µM.

In the case of `COC[C@H]1Cn2cc(-c3nc(Nc4ccnn4C)ncc3C)nc2C(=O)N1Cc1ccc(F)c(F)c1`, the GI50 in assay [1] was 3.23 µM; in [2], 0.124 µM; in assay [9], 0.471 µM; in assay [4], 0.181 µM; in assay [10] it was over 100 µM; in [7] it was over 100 µM. Further, in [8], the GI50 was 2.66 µM. Moreover, the TGI in assay [1] was over 100 µM; in [2] it was over 100 µM; in assay [9], 10.6 µM; in assay [4] it was over 100 µM; in assay [5] it was over 100 µM; in assay [10], over 100 µM. Also, the TGI in assay [7] was over 100 µM; in assay [8], over 86.6 µM.

Take `CC(C)(C)c1cc2c(O)c3cccc4c(=O)c5cccc6c5-c(c34)c2c(c1)c6=O`: the TGI in assay [1], in assay [2], in assay [9], in [3], in assay [4] and in [5] was over 100 µM throughout. The TGI in assay [7] is 30.4 µM; in [8] it was over 100 µM.

Consider `CN(C)CC1CC/C(=C\c2ccc(O)cc2)C1=O` (centres undefined), for which the TGI was determined as 40.9 µM in [1]; 4.09 µM in [2]; 2.91 µM in assay [9]; 6.62 µM in assay [3]; 13.2 µM in assay [4]; 3.17 µM in assay [5]. In addition, the values for the TGI in [10], in [6] and in assay [8] were 21.5 µM, 6.08 µM and 26.5 µM, respectively.

Take `NC(=O)c1ccccc1NC(=O)C(=O)C(C(=O)c1ccc(Cl)c(Cl)c1)C1OC(=O)c2ccccc21` (centres undefined): the TGI in [1] was over 100 µM; in [2], 39 µM; in [9], over 100 µM; in [3], 80.4 µM; in assay [4], over 100 µM; in assay [7] it was over 100 µM.

Consider `Cc1cccc(C)c1NC(=O)CCCC(=O)C1/C(=N/NC(=O)CC#N)CCC/C1=N\NC(=O)CC#N` (centres undefined), for which the TGI in assay [1], in [2], in [9], in [3], in assay [4] and in assay [5] was over 100 µM in each case. Further, the TGI in assay [6], in assay [7] and in [8] was over 100 µM in each case.
